Common to all, as to format: cell-based
Test [1] concerns pSTAT3 in HEPG2 (liver cancer) cells induced by IL-6. Kind of test: Inhibition of pSTAT3 (IL-6 induced phosphorylation of STAT3, Phospho-STAT3 (Tyr705) Sandwich ELISA). Conditions: Homo sapiens, 4 hours compound, then IL-6 (10 ng/mL) 30 minutes. Here is the method: The experimental drugs were tested for their effect on phosphorylation of STAT3 in HEPG2 (liver cancer) cells induced by IL-6. Test compounds were dissolved in DMSO at 20 mM and diluted in a growth medium at 2× strength. Final DMSO concentration was less than 0.5%. 100 μL of cell suspension (10×10^4 cells/mL) was added to the wells of 96 well plates and allowed to adhere for 24 hours in a CO2 incubator at 37° C. Following overnight incubation, the culture medium was replaced with 100 μL of fresh growth medium and 100 μL of test compound (s), standard (Curcumin) and growth medium (untreated) wells. The plates were incubated in CO2 incubator at 37° C. for 4 hours. After compound treatment, IL-6 (10 ng/mL) was added to the wells and incubated for 30 minutes to induce pSTAT3.
At the end of the 30 minutes incubation, cells were rinsed with ice-cold PBS and lysed with 1× Cell lysis buffer containing 1 mM PMSF (provided in the kit) on ice for 5 minutes. The cells were scraped off and transferred to an appropriate tube, sonicated on ice and centrifuged for 10 minutes at 4° C. The supernatant (cell lysate) was collected and stored at −80° C. and the levels of pSTAT3 were measured in the cell lysate by Path Scan Phospho-STAT3 (Tyr705) Sandwich ELISA kit (Cell Signaling, Cat No. 7300) by following the kit instructions.

Test [2] relates to HCT 116 (colon), NCIH460 (lung) and U251 (glioma) cell lines. Kind of test: Anti-cancer screen (MTT growth inhibition, 48 hours).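 Note: mean GI50 across the three cell lines.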 Conditions: Homo sapiens; HCT 116, NCIH460 and U251 cell lines; MTT after 48 hours of incubation. Here is the method:
The experimental drugs were screened for anti-cancer activity in three cell lines using five concentrations for each compound. The cell lines—HCT 116 (colon), NCIH460 (lung) and U251 (glioma) were maintained in DMEM containing 10% fetal bovine serum. 96-well microtiter plates are inoculated with cells in 100 μL of cell suspension (5×10^4 cells/mL) for 24 hours at 37° C., 5% CO2, 95% air and 100% relative humidity. A separate plate with these cell lines is also inoculated to determine cell viability before the addition of the compounds (T0)
Following 24-hour incubation, test compounds were added to the 96 well plates. Each plate contains one of the above cell lines and the following samples in triplicate: five different dilutions (0.01, 0.1, 1, 10 and 100 μM) of four test compounds, appropriate dilutions of a cytotoxic standard and growth medium (untreated) wells. Test compounds were dissolved in DMSO to prepare 20 mM stock solutions on the day of drug addition and serial dilutions were carried out in complete growth medium at 2× strength, such that 100 μL added to the wells gave final concentrations (0.01, 0.1, 1, 10 and 100 μM) in the well. SAHA was used as the standard drug in these experiments.
For T0 measurement, 24 hours after seeding the cells, 20 μL of 3-(4,5-dimethyl-2-thiazolyl)-2,5-diphenyl-2H-tetrazolium (MTT) solution per well was added to the ‘T0’ plate and incubated for 3 hours at 37° C. in a CO2 incubator. The plate containing cells and test compounds was treated similarly after 48 hours of incubation. After 3 hours of MTT addition, well contents were aspirated carefully followed by addition of 150 μL DMSO per well. Plates were agitated to ensure dissolution of the formazan crystals in DMSO and absorbance was read at 570 nm (A570).
Percent growth (PG) is calculated relative to the control and zero measurement wells (T0) as follows:
PG values are plotted against drug concentration to derive the following: GI50 is the concentration required to decrease PG by 50% vs control; TGI is the concentration required to decrease PG by 100% vs control and LC50 is the concentration required to decrease PG by 50% vs T0. (Mosmann T. Rapid colorimetric assay for cellular growth and survival: application to proliferation and cytotoxicity assays. (J. Immunol. Methods. 1983, 65 (1-2), 55-63; Anne Monks et al); feasibility of high-flux anticancer drug screen using a diverse panel of cultured human tumor cell lines”. (JNCI, Vol. 83, No. 11, 1991). Results for growth inhibition of synthesized compounds are given in Table-1.

The test system of test [3] is IL-6 in supernatant of NCIH 460 cells. Kind of test: Measuring IL-6 in culture supernatants (ELISA). Conditions: Homo sapiens, NCI-H460, 5 hours incubation. In general terms: An ELISA detects its analyte on a solid surface through an enzyme-linked reagent.

A word on the inhibition: it is the share of the control response that was lost under treatment. As usually defined, the GI50 is the concentration at which growth is held to half of that of the control.

With `COC(=O)/C(=C/c1ccc(C)s1)c1ccc(OCC(O)CNCc2ccc(OC)cc2OC)cc1` (stereo not shown) [Example 56, 2-{4-[3-(2,4-Dimethoxybenzylamino)-2-hydroxypropoxy]phenyl}-3-(5-methylthiophen-2-yl)acrylic acid methyl ester], testing at 10 µM in test [1] gave an inhibition of 56.2%. Same read-out and setting: the value for `COC(=O)/C(=C/c1ccc(OCC(O)CNCCOc2ccccc2OC)cc1)c1cccc(F)c1` (stereo not shown) [Example 51, 3-{4-[3-(2-Methoxyphenoxyethylamino)-2-hydroxypropoxy]phenyl}-2-(3-fluorophenyl)acrylic acid methyl ester] was 49.9%; that for `COC(=O)/C(=C/c1ccc(OCC(O)CNCc2ccc(OC)cc2OC)cc1)c1ccccc1F` (stereo not shown) [Example 53, 3-{4-[3-(2,4-Dimethoxybenzylamino)-2-hydroxypropoxy]phenyl}-2-(2-fluorophenyl)acrylic acid methyl ester] was 61.4%. Take `COC(=O)/C(=C/c1cc(OC)cc(OC)c1)c1ccc(OCC(O)CNCc2ccc(OC)cc2OC)cc1` (stereo not shown) [Example 3, 2-{4-[3-(2,4-Dimethoxybenzylamino)-2-hydroxypropoxyl]phenyl}-3-(3,5-dimethoxyphenyl)acrylic acid methyl ester]: in test [2], the GI50 worked out at 4.1 µM. In test [3], the inhibition at 10 µM was 67%.

In turn, `COC(=O)/C(=C/c1ccc(OCC(O)CNCCOc2ccccc2OC)cc1)c1ccccc1` (stereo not shown) [Example 42, 3-{4-[3-(2-Methoxyphenoxyethylamino)-2-hydroxypropoxy]phenyl}-2-phenylacrylic acid methyl ester] registered a GI50 in test [2] of 12 µM. Also, 10 µM produced 13% inhibition in test [3]. For the molecule `COC(=O)/C(=C/c1cc(OC)c(OC)c(OC)c1)c1ccc(OCC(O)CNCCOc2ccccc2OC)cc1` (stereo not shown) [Example 11, 2-{4-[3-(2-Methoxyphenoxyethylamino)-2-hydroxypropoxyl]phenyl}-3-(3,4,5-trimethoxyphenyl)acrylic acid methyl ester], in test [2], the GI50 was found to be 37.3 µM. Moreover, in test [3], the inhibition at 10 µM was determined as 29%. In test [1], `COC(=O)/C(=C/c1ccc(F)c(C)c1)c1ccc(OCC(O)CNCc2ccc(OC)cc2OC)cc1` (stereo not shown) [Example 1, 2-{4-[3-(2,4-dimethoxybenzylamino)-2-hydroxypropoxy]phenyl}-3-(4-fluoro-3-methylphenyl)acrylic acid methyl ester] yielded an inhibition at 10 µM of 22.2%. Consider `COC(=O)/C(=C/c1ccc(OC)c(OC)c1)c1ccc(OCC(O)CNCc2ccc(OC)cc2OC)cc1` (stereo not shown) [Example 13, 2-{4-[3-(2,4-Dimethoxybenzylamino)-2-hydroxypropoxyl]phenyl}-3-(3,4,-dimethoxyphenyl)acrylic acid methyl ester], for which halving of growth in test [2] (GI50) required 3.5 µM. Moreover, in test [3], the inhibition at 10 µM was 67%.

As to `COC(=O)/C(=C/c1ccc(F)c(C)c1)c1ccc(OCC(O)CNCc2ccccc2)cc1` (stereo not shown) [Example 21, 2-{4-[3-(Benzylamino)-2-hydroxypropoxy]phenyl}-3-(4-fluoro-3-methylphenyl)acrylic acid methyl ester], the GI50 in test [2] stood at 13.1 µM. In addition, in test [3], the inhibition at 10 µM was determined as 22.8%. `COC(=O)/C(=C/c1ccc(OC)c(OC)c1)c1ccc(OCC(O)CNCCOc2ccccc2OC)cc1` (stereo not shown) [Example 14, 2-{4-[3-(2-Methoxyphenoxyethylamino)-2-hydroxypropoxyl]phenyl}-3-(3,4,-dimethoxyphenyl)acrylic acid methyl ester] showed a concentration for 50% growth inhibition (GI50) in test [2] of 4 µM. In test [3], at 10 µM the inhibition was 38%. For the molecule `COC(=O)/C(=C/c1cc(OC)cc(OC)c1)c1ccc(OCC(O)CNCc2ccc(F)cc2)cc1` (stereo not shown) [Example 20, 2-{4-[3-(4-Fluorobenzylamino)-2-hydroxypropoxy]phenyl}-3-(3,5-dimethoxyphenyl)acrylic acid methyl ester], growth in test [2] was halved (GI50) at 16.8 µM. Also, the inhibition at 10 µM in test [3] was 0%. For `COC(=O)/C(=C/c1cc(OC)cc(OC)c1)c1ccc(OCC(O)CNCc2ccccc2)cc1` (stereo not shown) [Example 18, 2-{4-[3-(Benzylamino)-2-hydroxypropoxy]phenyl}-3-(3,5-dimethoxyphenyl)acrylic acid methyl ester] the same measures were 5.3 µM and 25%. The matching figures for `COC(=O)/C(=C/c1cc(OC)c(OC)c(OC)c1)c1ccc(OCC(O)CNCc2ccc(OC)cc2OC)cc1` (stereo not shown) [Example 6, 2-{4-[3-(2,4-Dimethoxybenzylamino)-2-hydroxypropoxyl]phenyl}-3-(3,4,5-trimethoxyphenyl)acrylic acid methyl ester]: 5.2 µM and 73%. In the case of `COc1ccccc1OCCNCC(O)COc1ccc(/C(=C\c2ccc(F)c(F)c2)C(N)=O)cc1` (stereo not shown) [Example 65, 2-{4-[3-(2-Methoxyphenoxyethylamino)-2-hydroxypropoxy]phenyl}-3-(3,4-difluorophenyl)acrylamide], in test [1], the inhibition at 10 µM was 0%.

In the case of `COC(=O)/C(=C/c1ccc(OCC(O)CNCc2ccc(F)cc2)cc1)c1ccccc1` (stereo not shown) [Example 10, 3-{4-[3-(4-Fluorobenzylamino)-2-hydroxypropoxyl]phenyl}-2-phenylacrylic acid methyl ester], it took 35.3 µM to inhibit growth in test [2] by half (GI50). In test [3], this molecule gave an inhibition at 10 µM of 4.5%. For `COC(=O)/C(=C/c1ccc(OCC(O)CNCCOc2ccccc2OC)cc1)c1ccc(OC)cc1` (stereo not shown) [Example 29, 3-{4-[3-(2-Methoxyphenoxyethylamino)-2-hydroxypropoxy]phenyl}-2-(4-(methoxy)phenyl)acrylic acid methyl ester] the same measures were 1.9 µM and 64.2%. The matching figures for `COC(=O)/C(=C/c1ccc(F)c(OC)c1)c1ccc(OCC(O)CNCCOc2ccccc2OC)cc1` (stereo not shown) [Example 7, 2-{4-[3-(2-Methoxyphenoxyethylamino)-2-hydroxypropoxyl]phenyl}-3-(4-fluoro-3-methoxyphenyl)acrylic acid methyl ester]: 2.2 µM and 58%. The matching figures for `COC(=O)/C(=C/c1ccc(OC)cc1OC)c1ccc(OCC(O)CNCc2ccc(OC)cc2OC)cc1` (stereo not shown) [Example 32, 2-{4-[3-(2,4-Dimethoxybenzylamino)-2-hydroxypropoxy]phenyl}-3-(2,4-dimethoxyphenyl)acrylic acid methyl ester]: 0.6 µM and 70.5%. Consider `COC(=O)/C(=C/c1ccccc1OCC(O)CNCCOc1ccccc1OC)c1ccc(OC)cc1` (stereo not shown) [Example 46, 3-{2-[3-(2-Methoxyphenoxyethylamino)-2-hydroxypropoxy]phenyl}-2-(4-methoxyphenyl)acrylic acid methyl ester], for which growth in test [2] was halved (GI50) at 1.6 µM. In test [3], this molecule yielded an inhibition at 10 µM of 48%. The matching figures for `COC(=O)/C(=C/c1ccc(OCC(O)CNCc2ccccc2)cc1)c1cccs1` (stereo not shown) [Example 31, 3-{4-[3-(Benzylamino)-2-hydroxypropoxy]phenyl}-2-(thiophen-2-yl)acrylic acid methyl ester]: 0.9 µM and 2.1%. For the molecule `COC(=O)/C(=C/c1ccccc1)c1ccc(OCC(O)CNCc2ccc(OC)cc2OC)cc1` (stereo not shown) [Example 17, 2-{4-[3-(2,4-Dimethoxybenzylamino)-2-hydroxypropoxy]phenyl}-3-phenylacrylic acid methyl ester], the GI50 in test [2] came out at 3.4 µM. In test [3], this molecule showed an inhibition at 10 µM of 25%.
